Experimental data taken from patent publication US20030082722A1, “Method for amplifying expression from a cell specific promoter” (priority 2001, published 2003).
Read-outs that look alike come from different tables or passages of the source.

B1: TRAIL protein: recombinant soluble TRAIL protein (R & D Systems) (protein, UniProt P50591 39-281, looked up)
extracellular domain: TNELKQMQDKYSKSGIACFLKEDDSYWDPNDEESMNSPCWQVKWQLRQLVRKMILRTSEETISTVQEKQQNISPLVRERGPQRVAAHITGTRGRSNTLSSPNSKNEKALGRKINSWESSRSGHSFLSNLHLRNGELVIHEKGFYYIYSQTYFRFQEEIKENTKNDKQMVQYIYKYTSYPDPILLMKSARNSCWSKDAEYGLYSIYQGGIFELKENDRIFVSVTNEHLIDMDHEASFFGAFLVG
modifications: extracellular domain recombinant soluble

Assays:
DLD1/TRAIL-R = experiment: Sensitizing TRAIL-resistant cells to Ad/gTRAIL by chemotherapeutic agents; settings: Ad/gTRAIL 1000 viral particles/cell; 96 h
Procedure: Chemotherapeutic agents concentrations are shown on the bottom of each graph. […] Cell viability was determined at 96 h after treatment. Levels are mean+/−SD of two quadruplet assays. […] Cells were treated with adenovector at 1000 moi (vp), 5-FU 50 μm and 1.25 μm MMC. In combination group, the dose were the same as the single agent group. Cells were harvested at 96 h after treatment and cell lysate was used for Western blot analysis.

231/ADR = experiment: IC50 of chemotherapeutic agents and Ad/gTRAIL, doxorubicin-resistant cells; type: cell-based, human; settings: for IC50: Homo sapiens
Procedure: Cell Lines and Reagents. […] Immortalized nontransformed breast epithelial cell lines MCF10A and MCF10F and normal human mammary epithelial cells (NHMEC) were purchased from Clonetics (San Diego, Calif.). […] Doxorubicin-resistant MDA-MB-231 cells were obtained through the stepwise exposure of the parental cells to doxorubicin. […] The residual surviving cells were then allowed to grow in fresh medium. When these residual cells reached 70-80% confluence in the plate, they were treated again with the same concentration of doxorubicin. After this cycle was repeated several times, the concentration of doxorubicin was increased multiple times followed by the regrowth of cells.
Assays. Cell viability, flow cytometry, and Western blot analysis were performed as described in previous examples. […] For Western analysis anti-caspase-8 (R&D systems, Minneapolis, Minn.), anti-caspase-3 (BD PharMingen, San Diego, Calif.), anti-PARP (BD PharMingen), anti-GFP (Clontech Inc., Palo Alto, Calif.), and anti-hTRAIL (Alexis, San Diego, Calif.) antibodies were used.
Statistical Analysis. Differences among the treatment groups were assessed as described in previous examples. Survival was assessed using the Kaplan-Meier method.

MDA-MB-231 = experiment: IC50 of chemotherapeutic agents and Ad/gTRAIL, parental cells; type: cell-based, human
Procedure: Cell Lines and Reagents. Human breast cancer cell lines MCF7, MDA-MB-231, MDA-MB-453, and MDA-MB-468 were grown in RPMI 1640 medium supplemented with 10% heat-inactivated fetal bovine serum, and antibiotics, and glutamine. Immortalized nontransformed breast epithelial cell lines MCF10A and MCF10F and normal human mammary epithelial cells (NHMEC) were purchased from Clonetics (San Diego, Calif.). Primary normal human mammary epithelial cells (PNHMEC) isolated from normal breast tissue (Stampfer and Yaswen, 1994) were provided by Dr. Yinhua Yu (The University of Texas M. D. Anderson Cancer Center). Doxorubicin-resistant MDA-MB-231 cells were obtained through the stepwise exposure of the parental cells to doxorubicin. […] The residual surviving cells were then allowed to grow in fresh medium. When these residual cells reached 70-80% confluence in the plate, they were treated again with the same concentration of doxorubicin. After this cycle was repeated several times, the concentration of doxorubicin was increased multiple times followed by the regrowth of cells. […] Other agents used in these experiments included gemcitabine (Eli Lilly and Co., Indianapolis, Ind.), vinorelbine (Pierre Fabre, Idron 64320, France), paclitaxel (Bristol-Myers Squibb Co., Princeton, N.J.), irinotecan (Pharmacia & Upjohn Co., Kalamazoo, Mich.), floxuridine (Ben Venue Labs, Inc., Bedford, Ohio), and TRAIL protein (R & D Systems, Minneapolis, Minn.).
Assays. Cell viability, flow cytometry, and Western blot analysis were performed as described in previous examples. See also Gu et al., 2000 and Kagawa et al., 2001. Biochemical analysis, using β-galactosidase was determined as dexcribed in Example 1. For Western analysis anti-caspase-8 (R&D systems, Minneapolis, Minn.), anti-caspase-3 (BD PharMingen, San Diego, Calif.), anti-PARP (BD PharMingen), anti-GFP (Clontech Inc., Palo Alto, Calif.), and anti-hTRAIL (Alexis, San Diego, Calif.) antibodies were used. Apoptosis in tumors was assessed by in situ TUNEL staining as decribed in Example 3.
Statistical Analysis. Differences among the treatment groups were assessed as described in previous examples. Survival was assessed using the Kaplan-Meier method. The drug concentration that inhibited cells growth by 50% (IC50) was calculated by CurveExpert 1.3 software (Starkville, Miss.).

[1] = system: lung metastasis derived from breast cancer cells 231/ADR; experiment: Lung metastatic tumor model, aerosolized Ad/gTRAIL with paclitaxol; type: in vivo, nude mice; settings: day 35 after starting treatment
Procedure: The aerosol vector administration are the following: adenovirus of 1×10^12 particles was diluted in PBS to a final volume of Iml and was mixed with 500 μl (5 mg) of protamine. […] The complex was placed into the nebulizer chamber. The aerosol from the nebulizer was passed through a sealed plastic cage that housed the mice. The exposure required approximately 50 minutes, during which time the mice were allowed to move freely about the cage.

lung = experiment: Reporter gene expression in lung after aerosolized vector; type: in vivo, mice; settings: protamine 1 mg/ml, hydrocortisone 250 ng/ml
Procedure: The aerosol vector administration are the following: adenovirus of 1×10^12 particles was diluted in PBS to a final volume of Iml and was mixed with 500 μl (5 mg) of protamine. The Protamine-adenovirus complex was mixed with 5 ml hydrocortisone (concentration of 250 ng/ml in H2O) after incubating 10 min at room temperature. The complex was placed into the nebulizer chamber. The aerosol from the nebulizer was passed through a sealed plastic cage that housed the mice. The exposure required approximately 50 minutes, during which time the mice were allowed to move freely about the cage.
Treatment of lung metastasis by aerosolized vector administration was also tested. […] Subsequent aerosol administration of adenovectors will contain protamine and hydrocortisone in the vector solution.

[2] = system: MDA-MB-231, MDA-MB-468, MDA-MB-453 and MCF7 cells; experiment: Cell viability after recombinant TRAIL protein; type: cell-based, human
Procedure: Cell Lines and Reagents. Human breast cancer cell lines MCF7, MDA-MB-231, MDA-MB-453, and MDA-MB-468 were grown in RPMI 1640 medium supplemented with 10% heat-inactivated fetal bovine serum, and antibiotics, and glutamine. Immortalized nontransformed breast epithelial cell lines MCF10A and MCF10F and normal human mammary epithelial cells (NHMEC) were purchased from Clonetics (San Diego, Calif.). Primary normal human mammary epithelial cells (PNHMEC) isolated from normal breast tissue (Stampfer and Yaswen, 1994) were provided by Dr. Yinhua Yu (The University of Texas M. D. Anderson Cancer Center). Doxorubicin-resistant MDA-MB-231 cells were obtained through the stepwise exposure of the parental cells to doxorubicin. In brief, the parental MDA-MB-231 cells were treated with doxorubicin (Ben Venue Labs, Inc., Bedford, Ohio) at concentration of 2 μM (1.16 μg/ml, which is the IC80 of MDA-MB-231 cells). Most cells were killed after day 4 of treatment. The residual surviving cells were then allowed to grow in fresh medium. When these residual cells reached 70-80% confluence in the plate, they were treated again with the same concentration of doxorubicin. […]
To test whether these cells were similarly sensitive to soluble TRAIL protein, cells were treated with recombinant TRAIL protein at various concentrations up to 800 ng/ml. Cell viability was then determined at 24, 48, and 96 h after treatment. […]

[3] = Homo sapiens, MDA-MB-231, read-out: IC50

Description for H1299 lung cancer cells: Construction of Ad/gBax. […] This bicistronic vector as modified combined the two expression cassettes of the Tet-Off system (BD Clontech, San Francisco, Calif., USA) into a single vector (FIG. 28). […] The second cassette contained the cDNA of the GFP/Bax fusion protein under the control of a compound promoter consisting of TRE and the minimal immediate early promoter of CMV. GFP was included to facilitate the selection of recombinant virus and the detection of expression products.

| Molecule | sensitization of DLD1/TRAIL-R to Ad/gTRAIL (cell viability) (DLD1/TRAIL-R) | IC50 (231/ADR) | IC50 (MDA-MB-231; Homo sapiens, MDA-MB-231) | also measured |
| --- | --- | --- | --- | --- |
| COc1cccc2c1C(=O)c1c(O)c3c(c(O)c1C2=O)C[C@@](O)(C(=O)CO)C[C@@H]3O[C@H]1C[C@H](N)[C@H](O)[C@H](C)O1 [Doxorubicin, doxorubicin] | can sensitize DLD1/TRAIL-R to Ad/gTRAIL at certain concentrations | 97600 nM | 1140 nM | susceptibility to doxorubicin (231/ADR; 16 μM): resistant; IC80 (MDA-MB-231; Homo sapiens, MDA-MB-231): 2000 nM; susceptibility to doxorubicin (MDA-MB-231; parental MDA-MB-231, 2 μM): susceptible |
| O=c1[nH]c(=O)n([C@H]2C[C@H](O)[C@@H](CO)O2)cc1F [Floxuridine, floxuridine] | can be sensitized to Ad/gTRAIL | 4700 nM | 100 nM | – |
| Nc1ccn([C@@H]2O[C@H](CO)[C@@H](O)C2(F)F)c(=O)n1 [Gemcitabine, gemcitabine] | – | 37 nM | – | IC50 (MDA-MB-231; [3]): 18.6 nM |
| CCc1c2c(nc3ccc(OC(=O)N4CCC(N5CCCCC5)CC4)cc13)-c1cc3c(c(=O)n1C2)COC(=O)[C@]3(O)CC [Irinotecan, irinotecan] | – | 5940 nM | 1540 nM | – |
| CC(=O)O[C@H]1C(=O)[C@@]2(C)[C@H]([C@H](OC(=O)c3ccccc3)[C@]3(O)C[C@H](OC(=O)[C@H](O)[C@@H](NC(=O)c4ccccc4)c4ccccc4)C(C)=C1C3(C)C)[C@]1(OC(C)=O)CO[C@@H]1C[C@@H]2O [Paclitexol, paclitaxel] | – | 16.9 nM | 3.46 nM | numbers of tumor nodules in the lung [1]: dramatically reduced the numbers of tumor nodules |
| CN(C)[C@@H]1C(O)=C(C(N)=O)C(=O)[C@@]2(O)C(O)=C3C(=O)c4c(O)cccc4[C@@](C)(O)[C@H]3C[C@@H]12 [Tc, tetracycline] | – | – | – | concentration that started to inhibit GFP-Bax expression (H1299 lung cancer cells): 1 ng/mL |
| CCC1=C[C@@H]2CN(C1)Cc1c([nH]c3ccccc13)[C@@](C(=O)OC)(c1cc3c(cc1OC)N(C)[C@H]1[C@@](O)(C(=O)OC)[C@H](OC(C)=O)[C@]4(CC)C=CCN5CC[C@]31[C@@H]54)C2 [Vinorelbine, vinorelbine] | – | 22.9 nM | – | IC50 (MDA-MB-231; [3]): 2.4 nM |
| O=c1[nH]cc(F)c(=O)[nH]1 [fluorouracil] | can sensitize DLD1/TRAIL-R to Ad/gTRAIL at certain concentrations | – | – | – |
| C[C@]12CCC(=O)C=C1CC[C@@H]1[C@@H]2[C@@H](O)C[C@@]2(C)[C@H]1CC[C@]2(O)C(=O)CO [hydrocortisone] | – | – | – | reporter gene LacZ expression in lung (lung): dramatically increased |
| CO[C@@]12[C@H](COC(N)=O)C3=C(C(=O)C(C)=C(N)C3=O)N1C[C@@H]1N[C@@H]12 [mutamycin] | can sensitize DLD1/TRAIL-R to Ad/gTRAIL at certain concentrations | – | – | – |
| protamine | – | – | – | reporter gene LacZ expression in lung (lung): dramatically increased |
| B1 | – | – | – | sensitivity to TRAIL protein (cell viability) ([2]; MDA-MB-231 and MDA-MB-468, up to 800 ng/ml, 24, 48, 96 h): sensitive; sensitivity to TRAIL protein (cell viability) ([2]; MDA-MB-453 and MCF7, 800 ng/ml): resistant |
